Among the data in US5686485A, “Physiologically active EI-1941 compounds” (Kyowa Hakko Kogyo Co., Ltd., priority 1995, dated 1997) are IC50 and Solubility values, retold here.

The subject of series [1] is production of IL-1β by human monocyte-derived THP-1 cells. In words: Inhibitory activity against the production of IL-1β by human monocyte-derived THP-1 cells (LPS-stimulated, ELISA). Conditions: THP-1 cells differentiated with PMA 30 nM, 65 h, LPS 25 μg/ml, 4 hours, serum-free RPMI1640, test compound 0.05-50 μg/ml, read-out: IC50 (50% inhibitory concentration), IL-1 production inhibition. The format is cell-based. The protocol:
The inhibitory activity of EI-1941 compounds against the production of IL-1β by human monocyte-derived THP-1 cells (ATCC No. TIB 202) was examined in the following manner. The amount of IL-1β was determined by the ELISA method.
THP-1 cells were suspended in RPMI1640 medium (Nissui Pharmaceutical Co., Ltd.) containing 10% inactivated fetal calf serum at a concentration of 1×10^5 cells/ml. The cell suspension was put into wells of a 24-well plate in an amount of 1 ml/well. Phorbol 12-myristate 13-acetate (PMA, final concentration: 30 nM) was added to the wells, followed by incubation in a 5% CO2 -incubator at 37° C. for 65 hours to differentiate the cells into macrophage.
Then, the plate was gently washed with serum-free RPMI1640 medium to remove the cells which were not adhered to the wells, and the residue was cultured for 4 hours in serum-free RPMI1640 medium (1 ml/well) containing lipopolysaccharide (LPS, final concentration: 25 μg/ml) and a test compound (final concentration: 0.05-50 μg/ml).
After the completion of culturing, the amount of IL-1β released into the culture supernatant was determined by using an IL-1β determination kit (Amersham Corp.).
The IL-1 production inhibition rate was calculated according to the following equation to obtain IC50 (50% inhibitory concentration).
IL-1 production inhibition rate (%)=(A-B)/(A-C)×100
A: Amount of IL-1 produced when only LPS is added […]

A short description of a further series: Solubility. Conditions: in methanol and acetonitrile. The format is physicochemical.

For the molecule `CCCC1CC2=C(C(O)O1)C(O)C1OC1C2=O` (centres unmarked) [EI-1941-1], the IC50 in series [1] turned out to be 1000 nM. In addition, the Solubility result in “Solubility” is “Readily soluble in methanol and acetonitrile”.

`CCCC1CC2=C(C(=O)O1)C(O)C(O)CC2=O` (centres unmarked) [EI-1941-3]: the Solubility entry in “Solubility” was “Readily soluble in methanol and acetonitrile”.

As for `CCCC1CC2=C(C(=O)O1)C(O)C1OC1C2=O` (centres unmarked) [EI-1941-2], in series [1], the IC50 was 2200 nM. Moreover, the Solubility entry in “Solubility” is “Readily soluble in methanol and acetonitrile”.
